For seven cell lines, relative viability results are on record in the supplement of paper PMC10307832.

What all share (assay): relative viability (nuclei count vs DMSO), 5 days (fraction); higher = more cells survive
Compound in experiment [1]: COc1cc(-c2nn([C@H]3CC[C@H](N4CCN(C(C)=O)CC4)CC3)c3ncnc(N)c23)ccc1NC(=O)c1cc2ccccc2n1C + N=C(N)NC(=N)NCCc1ccccc1 [Phenformin] (partner 250 µM)
The gist of the method:
(§1)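 One day after seeding in 1536-well plates, lung cancer cell lines were dosed by pin tool. Dosing was either single-drug or a fixed anchor-drug dose plus five library-drug doses (not always all listed) in √10 steps. After 5 days, nuclei were stained in one fix-and-stain step and counted on 4× images, and relative viability is the nuclei count of treated wells over that of vehicle wells, given as the median of duplicate plates.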

Compound in experiment [2]: COc1cc(-c2nn([C@H]3CC[C@H](N4CCN(C(C)=O)CC4)CC3)c3ncnc(N)c23)ccc1NC(=O)c1cc2ccccc2n1C + CC(=O)c1c(C)c2cnc(Nc3ccc(N4CCNCC4)cn3)nc2n(C2CCCC2)c1=O [Palbociclib] (partner 0.5 µM)
The gist of the method: as §1

Compound in the experiment “Midostaurin + Vorinostat”: CO[C@@H]1[C@H](N(C)C(=O)c2ccccc2)C[C@H]2O[C@]1(C)n1c3ccccc3c3c4c(c5c6ccccc6n2c5c31)C(=O)NC4 [Midostaurin] + O=C(CCCCCCC(=O)Nc1ccccc1)NO [Vorinostat] (partner 1 µM)
The gist of the method:
as §1

Compound in experiment [3]: COc1cc(-c2nn([C@H]3CC[C@H](N4CCN(C(C)=O)CC4)CC3)c3ncnc(N)c23)ccc1NC(=O)c1cc2ccccc2n1C + Cc1nc(Nc2ncc(C(=O)Nc3c(C)cccc3Cl)s2)cc(N2CCN(CCO)CC2)n1 [Dasatinib] (partner 0.075 µM)
The gist of the method: as §1

Compound in the experiment “Midostaurin + Lapatinib”: CO[C@@H]1[C@H](N(C)C(=O)c2ccccc2)C[C@H]2O[C@]1(C)n1c3ccccc3c3c4c(c5c6ccccc6n2c5c31)C(=O)NC4 [Midostaurin] + CS(=O)(=O)CCNCc1ccc(-c2ccc3ncnc(Nc4ccc(OCc5cccc(F)c5)c(Cl)c4)c3c2)o1 [Lapatinib] (partner 2 µM)
The method in brief:
as §1

For NCI-H1355, the relative viability is 0.476 in experiment [1] (first compound 0.0128 µM); 0.401 in experiment [1] (first compound 0.04048 µM); 0.459 in experiment [1] (first compound 0.128 µM); 0.41 in experiment [1] (first compound 1.28 µM); 0.448 in experiment [2] (first compound 0.0128 µM); 0.402 in experiment [2] (first compound 0.04048 µM). The relative viability in experiment [2] (first compound 0.128 µM) amounted to 0.416; in experiment [2] (first compound 1.28 µM) it was 0.415; with Midostaurin + Vorinostat (first compound 0.01 µM), 0.665; in the experiment with Midostaurin + Vorinostat (first compound 0.03162 µM), 0.672; in the experiment with Midostaurin + Vorinostat (first compound 0.1 µM), 0.619; with Midostaurin + Vorinostat (first compound 0.3162 µM) it was 0.667. For the same cell line, the relative viability in experiment [3] (first compound 0.0128 µM) worked out at 0.834; in experiment [3] (first compound 0.04048 µM) it was 0.798; in experiment [3] (first compound 0.128 µM), 0.719; in experiment [3] (first compound 1.28 µM), 0.884; with Midostaurin + Lapatinib (first compound 0.01 µM) it was 0.979; with Midostaurin + Lapatinib (first compound 0.03162 µM), 0.959. In addition, the relative viability with Midostaurin + Lapatinib (first compound 0.1 µM) was 1.08; with Midostaurin + Lapatinib (first compound 0.3162 µM), 1.09.

Regarding H3255, the relative viability amounted to 0.347 in experiment [1] (first compound 0.0128 µM); 0.297 in experiment [1] (first compound 0.04048 µM); 0.36 in experiment [1] (first compound 0.128 µM); 0.282 in experiment [1] (first compound 1.28 µM); 0.324 in experiment [2] (first compound 0.0128 µM); 0.316 in experiment [2] (first compound 0.04048 µM). For the same cell line, the relative viability in experiment [2] (first compound 0.128 µM) turned out to be 0.349; in experiment [2] (first compound 1.28 µM) it was 0.318; with Midostaurin + Vorinostat (first compound 0.01 µM) it was 0.86; with Midostaurin + Vorinostat (first compound 0.03162 µM) it was 0.615; with Midostaurin + Vorinostat (first compound 0.1 µM), 0.765; with Midostaurin + Vorinostat (first compound 0.3162 µM) it was 0.744. Moreover, the relative viability in experiment [3] (first compound 0.0128 µM) is 0.345; in experiment [3] (first compound 0.04048 µM) it was 0.313; in experiment [3] (first compound 0.128 µM), 0.434; in experiment [3] (first compound 1.28 µM) it was 0.307; in the experiment with Midostaurin + Lapatinib (first compound 0.01 µM), 0.35; with Midostaurin + Lapatinib (first compound 0.03162 µM), 0.282. Further, the figures for the relative viability in the experiment with Midostaurin + Lapatinib (first compound 0.1 µM) and with Midostaurin + Lapatinib (first compound 0.3162 µM) were 0.259 and 0.22, respectively.

In the case of NCI-H1993, the relative viability in experiment [1] (first compound 0.0128 µM) is 0.539; in experiment [1] (first compound 0.04048 µM), 0.509; in experiment [1] (first compound 0.128 µM), 0.486; in experiment [1] (first compound 1.28 µM), 0.488; in experiment [2] (first compound 0.0128 µM), 0.616; in experiment [2] (first compound 0.04048 µM), 0.58. The relative viability in experiment [2] (first compound 0.128 µM) was determined as 0.617; in experiment [2] (first compound 1.28 µM), 0.605; in the experiment with Midostaurin + Vorinostat (first compound 0.01 µM), 0.83; in the experiment with Midostaurin + Vorinostat (first compound 0.03162 µM), 0.782; with Midostaurin + Vorinostat (first compound 0.1 µM), 0.87; in the experiment with Midostaurin + Vorinostat (first compound 0.3162 µM), 0.38. For the same cell line, the relative viability is 0.5 in experiment [3] (first compound 0.0128 µM); 0.499 in experiment [3] (first compound 0.04048 µM); 0.428 in experiment [3] (first compound 0.128 µM); 0.599 in experiment [3] (first compound 1.28 µM); 0.831 with Midostaurin + Lapatinib (first compound 0.01 µM); 0.805 with Midostaurin + Lapatinib (first compound 0.03162 µM). In addition, the relative viability was found to be 0.809 in the experiment with Midostaurin + Lapatinib (first compound 0.1 µM) and 0.79 in the experiment with Midostaurin + Lapatinib (first compound 0.3162 µM).

As to NCI-H1734, the relative viability was determined as 0.331 in experiment [1] (first compound 0.0128 µM); 0.297 in experiment [1] (first compound 0.04048 µM); 0.391 in experiment [1] (first compound 0.128 µM); 0.379 in experiment [1] (first compound 1.28 µM); 0.37 in experiment [2] (first compound 0.0128 µM); 0.332 in experiment [2] (first compound 0.04048 µM). Moreover, the relative viability in experiment [2] (first compound 0.128 µM) was 0.335; in experiment [2] (first compound 1.28 µM) it was 0.276; with Midostaurin + Vorinostat (first compound 0.01 µM), 0.796; in the experiment with Midostaurin + Vorinostat (first compound 0.03162 µM), 0.818; with Midostaurin + Vorinostat (first compound 0.1 µM), 0.855; with Midostaurin + Vorinostat (first compound 0.3162 µM) it was 0.467. Besides, the relative viability in experiment [3] (first compound 0.0128 µM) came out at 0.429; in experiment [3] (first compound 0.04048 µM), 0.599; in experiment [3] (first compound 0.128 µM), 0.531; in experiment [3] (first compound 1.28 µM), 0.516; with Midostaurin + Lapatinib (first compound 0.01 µM), 1.01; with Midostaurin + Lapatinib (first compound 0.03162 µM), 1.1. For the same cell line, the relative viability with Midostaurin + Lapatinib (first compound 0.1 µM) was 1.07; with Midostaurin + Lapatinib (first compound 0.3162 µM), 1.12.

For the cell line HOP-62, the relative viability in experiment [1] (first compound 0.0128 µM) is 0.712; in experiment [1] (first compound 0.04048 µM) it was 0.657; in experiment [1] (first compound 0.128 µM) it was 0.656; in experiment [1] (first compound 1.28 µM), 0.709; in experiment [2] (first compound 0.0128 µM), 0.503; in experiment [2] (first compound 0.04048 µM), 0.468. The relative viability in experiment [2] (first compound 0.128 µM) stood at 0.411; in experiment [2] (first compound 1.28 µM) it was 0.432; in the experiment with Midostaurin + Vorinostat (first compound 0.01 µM), 0.545; in the experiment with Midostaurin + Vorinostat (first compound 0.03162 µM) it was 0.607; with Midostaurin + Vorinostat (first compound 0.1 µM), 0.676; with Midostaurin + Vorinostat (first compound 0.3162 µM) it was 0.5. Besides, the relative viability in experiment [3] (first compound 0.0128 µM) was 0.704; in experiment [3] (first compound 0.04048 µM) it was 0.514; in experiment [3] (first compound 0.128 µM), 0.632; in experiment [3] (first compound 1.28 µM), 0.765; in the experiment with Midostaurin + Lapatinib (first compound 0.01 µM), 1.02; in the experiment with Midostaurin + Lapatinib (first compound 0.03162 µM), 0.994. For the same cell line, the figures for the relative viability in the experiment with Midostaurin + Lapatinib (first compound 0.1 µM) and with Midostaurin + Lapatinib (first compound 0.3162 µM) were 1.14 and 1.06, respectively.

As for LOU-NH91, the relative viability in experiment [1] (first compound 0.0128 µM) is 0.768; in experiment [1] (first compound 0.04048 µM), 0.778; in experiment [1] (first compound 0.128 µM), 0.808; in experiment [1] (first compound 1.28 µM) it was 0.649; in experiment [2] (first compound 0.0128 µM), 0.536; in experiment [2] (first compound 0.04048 µM), 0.533. Besides, the relative viability is 0.529 in experiment [2] (first compound 0.128 µM); 0.454 in experiment [2] (first compound 1.28 µM); 0.933 with Midostaurin + Vorinostat (first compound 0.01 µM); 0.882 in the experiment with Midostaurin + Vorinostat (first compound 0.03162 µM); 0.947 with Midostaurin + Vorinostat (first compound 0.1 µM); 0.983 in the experiment with Midostaurin + Vorinostat (first compound 0.3162 µM). The relative viability in experiment [3] (first compound 0.0128 µM) came to 0.557; in experiment [3] (first compound 0.04048 µM), 0.545; in experiment [3] (first compound 0.128 µM) it was 0.531; in experiment [3] (first compound 1.28 µM), 0.54; with Midostaurin + Lapatinib (first compound 0.01 µM), 0.736; with Midostaurin + Lapatinib (first compound 0.03162 µM), 0.736. Further, the relative viability with Midostaurin + Lapatinib (first compound 0.1 µM) was 0.811; in the experiment with Midostaurin + Lapatinib (first compound 0.3162 µM), 0.924.

For NCI-H2228, the relative viability in experiment [1] (first compound 0.0128 µM) is 0.278; in experiment [1] (first compound 0.04048 µM), 0.26; in experiment [1] (first compound 0.128 µM), 0.327; in experiment [1] (first compound 1.28 µM) it was 0.327; in experiment [2] (first compound 0.0128 µM), 0.761; in experiment [2] (first compound 0.04048 µM), 0.672. The relative viability is 0.772 in experiment [2] (first compound 0.128 µM); 0.522 in experiment [2] (first compound 1.28 µM); 0.878 in the experiment with Midostaurin + Vorinostat (first compound 0.01 µM); 0.424 with Midostaurin + Vorinostat (first compound 0.03162 µM); 0.716 with Midostaurin + Vorinostat (first compound 0.1 µM); 0.356 in the experiment with Midostaurin + Vorinostat (first compound 0.3162 µM). Also, the relative viability came out at 0.474 in experiment [3] (first compound 0.0128 µM); 0.436 in experiment [3] (first compound 0.04048 µM); 0.52 in experiment [3] (first compound 0.128 µM); 0.456 in experiment [3] (first compound 1.28 µM); 0.966 with Midostaurin + Lapatinib (first compound 0.01 µM); 1.07 in the experiment with Midostaurin + Lapatinib (first compound 0.03162 µM). The relative viability was 1.23 with Midostaurin + Lapatinib (first compound 0.1 µM) and 0.972 with Midostaurin + Lapatinib (first compound 0.3162 µM).
